From PMC11489133, “Obicetrapib exhibits favorable physiochemical and pharmacokinetic properties compared to previous cholesteryl ester transfer protein inhibitors: An integrated summary of results from non‐human primate studies and clinical trials” (Pharmacology Research & Perspectives, 2024)
Where two headings read alike, the source gives them in different places.

Assay: 39-week oral (gavage) toxicity/toxicokinetic study with 13-week treatment-free recovery period in cynomolgus monkeys
Type: in vivo, cynomolgus monkeys (Macaca fascicularis)
Details: for AUC(0–24) / Cmax / AUC(0-t): mean; for Rac AUC(0–24 h) (accumulation ratio) / Rac C max (accumulation ratio): Week 39 / Day 1; for concentration at 13 weeks after last dose / half-life / t max / Cmax / AUC(0-t): cynomolgus monkey; for concentration at 13 weeks after last dose: oral, after 13‐week treatment‐free period, all four recovery monkeys; for half-life / t max / Cmax / AUC(0-t): plasma, po; for AUC(0-t): read-out: AUC(0–24) (converted)
Protocol: CETP is present and active in non‐human primates, rabbits, and hamsters, but is absent in most other animal species, including mice, rats, and dogs.[2], [31], [32] A non‐human primate study was conducted using cynomolgus monkeys (Macaca fascicularis) to evaluate the toxicity of obicetrapib (TA‐8995), following twice daily (b.i.d.), six h apart, oral (gavage) administration to the monkey for 39 weeks (Clinical Study Report [CSR], NewAmsterdam Pharma). The monkey was selected as the species for this study because the CETP structure in monkeys is very similar to the structure of human CETP.[33] The cynomolgus monkeys were obtained from Noveprim Ltd, Mauritius. The monkeys were approximately 26–30 months old when obtained for the study and 28–32 months old at the start of dosing. On arrival at the study site, the weight range of the monkeys was 2.4–3.3 kg. Individual body weights were recorded once weekly (including Day 1 before the start of dosing) from time of allocation and on the day of necropsy. At the start of dosing, the weight range of the monkeys was 2.4–3.3 kg and 2.5–3.9 kg for the females and males, respectively. The weight range of the monkeys at the end of the dosing period (Week 39) was 3.0–4.8 kg and 3.0–5.2 kg for females and males, respectively.
The weight range of the recovery monkeys (n = 8) at Week 14 of the recovery period, prior to necropsy, was 3.5–5.2 kg and 3.7–4.9 kg for the females and males, respectively.
The animals were housed in pens that conform to the “Code of practice for the housing and care of animals used in scientific procedures” in rooms exclusive to the study. The rooms were air‐conditioned to provide 15–20 air changes/hour, and the temperature and relative humidity ranges were maintained at 21–25°C and 40–70%, respectively. Fluorescent lighting was controlled automatically to give a cycle of 12 h light and 12 h dark, with the exception of when experimental procedures dictated otherwise. A number of strategies were used for environmental enrichment for the monkeys, such as the provision of toys (e.g., balls, inert nylon chews), swings, and foraging materials. The monkeys were offered ad libitum water, 100 g of SQC Mazuri Primate Diet (Special Diets Services Ltd., Witham, UK), and a 25 g Bonio biscuit (Spillers) each day. When available, the diet was supplemented twice daily with fresh fruit, fresh vegetables, forage mix, peanuts, raisins, or sunflower seeds. The study was conducted in accordance with the requirements of the Animals (Scientific Procedures) Act 1986 and a local ethical review was maintained (CSR, NewAmsterdam Pharma).
The monkeys (n = 40; 20 of each sex) were allocated into four groups (based on existing social groupings) to receive treatment for 39 weeks: a control group (no treatment), a low‐dose group (10 mg/kg/day [5 mg/kg/b.i.d.] of obicetrapib), an intermediate‐dose group (20 mg/kg/day [10 mg/kg/b.i.d.] of obicetrapib), and a high‐dose group (50 mg/kg/day [25 mg/kg/b.i.d.] of obicetrapib). Four monkeys (two of each sex) from the 50 mg/kg/day dose group and four (two of each sex) from the control group were followed for an extended treatment‐free period of 13 weeks (recovery period). Obicetrapib was dosed as a suspension in 0.5% sodium carboxylmethyl cellulose solution and 0.1% polyoxyethylene hydrogenated castor oil. Toxicokinetic parameters were examined after 39 weeks of dosing. Blood samples for toxicokinetic evaluation were taken from all monkeys in the study on Day 1 and Day 273 (Week 39) pre‐dose and at 0.5, 1, 2, 3, 4, 6, 7.5, 9, 10, 12, and 24 h after dosing. Blood samples for toxicokinetic assessments were taken from the recovery animals on multiple days during the treatment‐free period at the same time intervals as the 24‐hour samples in Week 39. Delayed onset toxicity and/or reversibility of toxicity were examined during the 13‐week treatment‐free period. […]

[1] = female, 10 mg/kg/day, Day 1, 10 mg/kg/d, females
[2] = female, 20 mg/kg/day, Day 1, 20 mg/kg/d, females
[3] = female, 50 mg/kg/day, Day 1, 50 mg/kg/d, females
[4] = male, 10 mg/kg/day, Day 1, 10 mg/kg/d, males
[5] = male, 20 mg/kg/day, Day 1, 20 mg/kg/d, males
[6] = male, 50 mg/kg/day, Day 1, 50 mg/kg/d, males

CCOC(=O)N1c2ccc(C(F)(F)F)cc2C(N(Cc2cc(C(F)(F)F)cc(C(F)(F)F)c2)c2ncc(OCCCC(=O)O)cn2)CC1CC (stereo not shown) [Obicetrapib]
AUC(0–24) (Day 273 (Week 39), 10 mg/kg/d, females): 41 300 ngh/mL | AUC(0–24) (Day 273 (Week 39), 10 mg/kg/d, males): 40 300 ngh/mL | AUC(0–24) (Day 273 (Week 39), 20 mg/kg/d, females): 54 000 ngh/mL | AUC(0–24) (Day 273 (Week 39), 20 mg/kg/d, males): 65 200 ngh/mL | AUC(0–24) (Day 273 (Week 39), 50 mg/kg/d, females): 103 000 ngh/mL | AUC(0–24) (Day 273 (Week 39), 50 mg/kg/d, males): 111 000 ngh/mL | Rac AUC(0–24 h) (accumulation ratio) (10 mg/kg/d, females, mean (SD)): 1.4 (0.2) | Rac C max (accumulation ratio) (10 mg/kg/d, females, mean (SD)): 1.0 (0.2) | Rac AUC(0–24 h) (accumulation ratio) (10 mg/kg/d, males, mean (SD)): 1.4 (0.3) | Rac C max (accumulation ratio) (10 mg/kg/d, males, mean (SD)): 1.4 (0.1) | Rac AUC(0–24 h) (accumulation ratio) (20 mg/kg/d, females, mean (SD)): 1.1 (0.2) | Rac C max (accumulation ratio) (20 mg/kg/d, females, mean (SD)): 1.1 (0.2) | Rac AUC(0–24 h) (accumulation ratio) (20 mg/kg/d, males, mean (SD)): 1.4 (0.2) | Rac C max (accumulation ratio) (20 mg/kg/d, males, mean (SD)): 1.4 (0.3) | Rac AUC(0–24 h) (accumulation ratio) (50 mg/kg/d, females, mean (SD)): 0.9 (0.2) | Rac C max (accumulation ratio) (50 mg/kg/d, females, mean (SD)): 0.8 (0.1) | Rac AUC(0–24 h) (accumulation ratio) (50 mg/kg/d, males, mean (SD)): 1.0 (0.1) | Rac C max (accumulation ratio) (50 mg/kg/d, males, mean (SD)): 1.0 (0.2) | concentration at 13 weeks after last dose (both sexes, fat homogenate, 50 mg/kg/day, read-out: obicetrapib in fat homogenate (below LLOQ)): < 0.5 ng/mL | concentration at 13 weeks after last dose (both sexes, 50 mg/kg/day, perirenal white fat, read-out: obicetrapib in adipose tissue (below LLOQ), per g of fat): < 10 ng/g | half-life (both sexes, Day 1, read-out: Apparent t 1/2 for the individual monkeys): 4.8 to 10.5 h | half-life (both sexes, Day 1, read-out: mean t 1/2, range over groups): 5.8 to 7.2 h | half-life (both sexes, Day 273, read-out: mean t 1/2, range over groups): 6.4 to 12.1 h | half-life (both sexes, Week 39, with one exception, read-out: Apparent t 1/2 for the individual monkeys): 5.3 to 18.3 h | elimination of obicetrapib from plasma (end of 13‐week treatment‐free period, 50 mg/kg/day, both males and one female): complete | obicetrapib detected in plasma, % of the observed maximum concentration (end of 13‐week treatment‐free period, 50 mg/kg/day, one recovery female): 0.25% | time within which the mean C max was achieved (end of treatment, all of the monkeys, 3 h after the second dose): ≤ 9 h | t max (female, 10 mg/kg/day, Day 1, 10 mg/kg/d, females, mean (SD)): 5.9 h | half-life (female, 10 mg/kg/day, Day 1, 10 mg/kg/d, females, mean (SD), read-out: t ½ (elimination half‐life) (converted)): 7.2 h | Cmax (female, 10 mg/kg/day, Day 273 (Week 39), 10 mg/kg/d, females): 3390 ng/mL | t max (female, 10 mg/kg/day, Day 273 (Week 39), 10 mg/kg/d, females, mean (SD)): 4.8 h | half-life (female, 10 mg/kg/day, Day 273 (Week 39), 10 mg/kg/d, females, mean (SD), read-out: t ½ (elimination half‐life) (converted)): 12.1 h | Cmax [1]: 3300 ng/mL | AUC(0-t) [1]: 29800 ng·h/mL | t max (female, 20 mg/kg/day, Day 1, 20 mg/kg/d, females, mean (SD)): 4.8 h | half-life (female, 20 mg/kg/day, Day 1, 20 mg/kg/d, females, mean (SD), read-out: t ½ (elimination half‐life) (converted)): 5.8 h | Cmax (female, 20 mg/kg/day, Day 273 (Week 39), 20 mg/kg/d, females): 5160 ng/mL | t max (female, 20 mg/kg/day, Day 273 (Week 39), 20 mg/kg/d, females, mean (SD)): 4.8 h | half-life (female, 20 mg/kg/day, Day 273 (Week 39), 20 mg/kg/d, females, mean (SD), read-out: t ½ (elimination half‐life) (converted)): 8.8 h | Cmax [2]: 4980 ng/mL | AUC(0-t) [2]: 47800 ng·h/mL | half-life (female, 50 mg/kg/day, 50 mg/kg/day group, female with detectable concentrations 13 weeks after the last dose, read-out: t ½ of one outlier female (converted)): 516 h | t max (female, 50 mg/kg/day, Day 1, 50 mg/kg/d, females, mean (SD)): 6.2 h | half-life (female, 50 mg/kg/day, Day 1, 50 mg/kg/d, females, mean (SD), read-out: t ½ (elimination half‐life) (converted)): 6.8 h | Cmax (female, 50 mg/kg/day, Day 273 (Week 39), 50 mg/kg/d, females): 8480 ng/mL | t max (female, 50 mg/kg/day, Day 273 (Week 39), 50 mg/kg/d, females, mean (SD)): 6.6 h | half-life (female, 50 mg/kg/day, Day 273 (Week 39), 50 mg/kg/d, females, mean (SD), does not include data from one outlier, read-out: t ½ (elimination half‐life) (converted)): 7.4 h | half-life (female, 50 mg/kg/day, females in the high dose group (50 mg/kg/day), Week 39, read-out: mean t 1/2 including the outlier (converted)): 109 h | Cmax [3]: 11600 ng/mL | AUC(0-t) [3]: 118000 ng·h/mL | t max (male, 10 mg/kg/day, Day 1, 10 mg/kg/d, males, mean (SD)): 5 h | half-life (male, 10 mg/kg/day, Day 1, 10 mg/kg/d, males, mean (SD), read-out: t ½ (elimination half‐life) (converted)): 6.8 h | Cmax (male, 10 mg/kg/day, Day 273 (Week 39), 10 mg/kg/d, males): 3800 ng/mL | t max (male, 10 mg/kg/day, Day 273 (Week 39), 10 mg/kg/d, males, mean (SD)): 2 h | half-life (male, 10 mg/kg/day, Day 273 (Week 39), 10 mg/kg/d, males, mean (SD), read-out: t ½ (elimination half‐life) (converted)): 11 h | Cmax [4]: 2800 ng/mL | AUC(0-t) [4]: 29300 ng·h/mL | t max (male, 20 mg/kg/day, Day 1, 20 mg/kg/d, males, mean (SD)): 2.5 h | half-life (male, 20 mg/kg/day, Day 1, 20 mg/kg/d, males, mean (SD), read-out: t ½ (elimination half‐life) (converted)): 6.9 h | Cmax (male, 20 mg/kg/day, Day 273 (Week 39), 20 mg/kg/d, males): 6410 ng/mL | t max (male, 20 mg/kg/day, Day 273 (Week 39), 20 mg/kg/d, males, mean (SD)): 2.3 h | half-life (male, 20 mg/kg/day, Day 273 (Week 39), 20 mg/kg/d, males, mean (SD), read-out: t ½ (elimination half‐life) (converted)): 8.1 h | Cmax [5]: 4740 ng/mL | AUC(0-t) [5]: 46600 ng·h/mL | t max (male, 50 mg/kg/day, Day 1, 50 mg/kg/d, males, mean (SD)): 7.6 h | half-life (male, 50 mg/kg/day, Day 1, 50 mg/kg/d, males, mean (SD), read-out: t ½ (elimination half‐life) (converted)): 6.8 h | Cmax (male, 50 mg/kg/day, Day 273 (Week 39), 50 mg/kg/d, males): 9210 ng/mL | t max (male, 50 mg/kg/day, Day 273 (Week 39), 50 mg/kg/d, males, mean (SD)): 8.5 h | half-life (male, 50 mg/kg/day, Day 273 (Week 39), 50 mg/kg/d, males, mean (SD), read-out: t ½ (elimination half‐life) (converted)): 6.4 h | Cmax [6]: 9600 ng/mL | AUC(0-t) [6]: 118000 ng·h/mL | mean body weights (recovery period, monkeys treated at 50 mg/kg/day (25 mg/kg/b.i.d.)): comparable with the control monkeys | Group mean body weights (treated monkeys, dosing period): comparable with the control monkeys
